Results from publication PMC9713320, “Study of the anticancer effect of new quinazolinone hydrazine derivatives as receptor tyrosine kinase inhibitors” (Frontiers in Chemistry, 2022).

Tests used:
EBC-1 = assay: cells; set-up: MTT antiproliferative assay, absorbance at 570 nm, monolayer cancer cells; conditions: Homo sapiens, 72 h, MTT, read-out: IC50 (µM) / Mean ± SEM / EBC-1
Source text: (§1) MTT (3-(4,5-dimethylthiazol-2-yl)-2,5-diphenyltetrazolium bromide) assay was applied to evaluate the antiproliferative effects of synthetic compounds against cancer and normal cell lines as previously described ([Damghani et al., 2021]). The MTT assay is based on the reduction function of NAD(P)H-dependent cellular oxidoreductase enzymes on yellow tetrazolium dye MTT to its insoluble formazan, which has a purple color and reflects the number of viable cells. Cancer and non-cancer cells were seeded in 96-well flat bottom plates at different densities of 1.5 × 10^4 (HT-29), 3 × 10^4 (A549 and U-87MG), 4 × 10^4 (EBC-1). Synthetic compounds were first dissolved in DMSO and then diluted in growth medium. After 24 h the attached cells were exposed to 100 µL of 3-4 different concentrations of synthesized derivatives in triplicate manner and incubated for an additional 72 h at 37°C. In addition, 3–4 different concentrations of reference compounds were added to wells. To perform the MTT assay the media was discarded from each well and MTT solution in phosphate-buffered saline at a concentration of 0.5 mg/ml was added to all wells. Then, plates were incubated at 37°C for 4 h to allow formation of formazan crystals. Afterwards, crystals were dissolved in 200 μL DMSO, shake on an orbital shaker for 30 min and absorbance was measured at a wavelength of 570 nm with background correction at 650 nm using a Bio-Tek microplate reader (Model Synergy HTX). Finally, IC50 values for each compound was calculated with CurveExpert software version 1.4 for windows. Each experiment was repeated 3–5 times. EBC-1 (human lung adenocarcinoma cells) were obtained from Japanese Collection of Research Bio Resources Cell Bank (JCRB). A549 (human lung adenocarcinoma cells), HT-29 (Human colorectal adenocarcinoma cells) and U-87MG (human primary glioblastoma cells) were obtained from Iranian Biological Resource Centre, Tehran, Iran. EBC-1 cells were cultured in RPMI 1640 medium containing 10% heat-inactivated fetal bovine serum (FBS) and 1% penicillin/streptomycin. A549, HT-29 and U-87MG cells were grown in DMEM low glucose, containing 10% heat-inactivated FBS and 1% penicillin/streptomycin. All cells were grown in monolayer culture at 37°C in a humidified incubator with 5% CO2. We employed the MTT assay in order to investigate the antiproliferative effects of the synthetic compounds against four different cancer cell lines, including lung cancer cell lines EBC-1 (with MET amplification) and A549, the human colorectal cancer cells HT-29, as well as the human glioblastoma cell line U-87MG.

HT-29 = assay: cells; set-up: MTT antiproliferative assay, absorbance at 570 nm, monolayer cancer cells; conditions: Homo sapiens, 72 h, MTT, read-out: IC50 (µM) / Mean ± SEM / HT29
Source text: as §1

A549 = assay: cells; set-up: MTT antiproliferative assay, absorbance at 570 nm, monolayer cancer cells; conditions: Homo sapiens, 72 h, MTT, read-out: IC50 (µM) / Mean ± SEM / A549
Source text: as §1

U-87MG = assay: cells; set-up: MTT antiproliferative assay, absorbance at 570 nm, monolayer cancer cells; conditions: Homo sapiens, 72 h, MTT, read-out: IC50 (µM) / Mean ± SEM / U-87MG
Source text: as §1

FGFR1 = FGFR1 (Homo sapiens, UniProt P11362); assay: radiometric kinase panel, % inhibition at […]; format: biochemical
FLT4 (VEGFR3) = FLT4 (VEGFR3) (Homo sapiens, UniProt P35916); assay: radiometric kinase assay (Eurofins), concentration-effect curve; format: biochemical
FLT1 (VEGFR1) = FLT1 (VEGFR1) (Homo sapiens, UniProt P17948); assay: radiometric kinase panel, % inhibition at […]; format: biochemical
ALK = ALK (Homo sapiens, UniProt Q9UM73); assay: radiometric kinase panel, % inhibition at […]; format: biochemical
AXL = AXL (Homo sapiens, UniProt P30530); assay: radiometric kinase panel, % inhibition at […]; format: biochemical
MET kinase = MET kinase (Homo sapiens, UniProt P08581); assay: HTRF kinase assay; confirmed by radiometric assay; format: biochemical
MAPK1(m) (ERK2) = MAPK1(m) (ERK2) (Mus musculus, UniProt P63085); assay: biochemical; set-up: Radiometric kinase activity assay, percent inhibition, Eurofins Cerep; conditions: read-out: Kinase inhibition (%) ^a / 10 µM / −4
MAPK1(m) (ERK2), sequence (P63085 whole entry): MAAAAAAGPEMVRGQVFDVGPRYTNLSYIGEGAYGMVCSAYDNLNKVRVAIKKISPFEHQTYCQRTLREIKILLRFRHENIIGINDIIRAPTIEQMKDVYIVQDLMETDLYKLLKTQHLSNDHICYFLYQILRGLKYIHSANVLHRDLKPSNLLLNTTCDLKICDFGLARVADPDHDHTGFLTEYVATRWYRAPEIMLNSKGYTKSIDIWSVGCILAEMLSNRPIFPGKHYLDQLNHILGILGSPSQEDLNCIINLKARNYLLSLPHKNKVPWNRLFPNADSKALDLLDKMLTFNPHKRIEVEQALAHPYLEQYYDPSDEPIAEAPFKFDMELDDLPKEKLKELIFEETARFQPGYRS
Experimental: (§2) Kinase inhibition profile was examined by Kinase Radiometric Assays for 18 different oncogenic kinases (Eurofins Cerep, Celle l'Evescault, France). In order to investigate the activity of compound CM9, as the most promising agent in this series, against other oncogenic kinases, we further assessed this derivative against a panel of 18 other protein kinases using a radiometric assay at the concentrations of 10 and/or 25 μM (Table 4).

11) MAPK3 (ERK1) (h) = 11) MAPK3 (ERK1) (h) (Homo sapiens, UniProt P27361); assay: biochemical; set-up: Radiometric kinase activity assay, percent inhibition, Eurofins Cerep; conditions: read-out: Kinase inhibition (%) ^a / 10 µM
Experimental: as §2

14) PDGFRA (PDGFRα) (h) = 14) PDGFRA (PDGFRα) (h) (Homo sapiens, UniProt P16234); assay: biochemical; set-up: Radiometric kinase activity assay, percent inhibition, Eurofins Cerep; conditions: read-out: Kinase inhibition (%) ^a / 10 µM / −4
Experimental: as §2

5) EGFR(h) = 5) EGFR(h) (Homo sapiens, UniProt P00533); assay: biochemical; set-up: Radiometric kinase activity assay, percent inhibition, Eurofins Cerep; conditions: read-out: Kinase inhibition (%) ^a / 10 µM
Experimental: as §2

13) MET(h) = 13) MET(h) (Homo sapiens, UniProt P08581); assay: biochemical; set-up: Radiometric kinase activity assay, percent inhibition, Eurofins Cerep
13) MET(h), sequence (P08581 whole entry): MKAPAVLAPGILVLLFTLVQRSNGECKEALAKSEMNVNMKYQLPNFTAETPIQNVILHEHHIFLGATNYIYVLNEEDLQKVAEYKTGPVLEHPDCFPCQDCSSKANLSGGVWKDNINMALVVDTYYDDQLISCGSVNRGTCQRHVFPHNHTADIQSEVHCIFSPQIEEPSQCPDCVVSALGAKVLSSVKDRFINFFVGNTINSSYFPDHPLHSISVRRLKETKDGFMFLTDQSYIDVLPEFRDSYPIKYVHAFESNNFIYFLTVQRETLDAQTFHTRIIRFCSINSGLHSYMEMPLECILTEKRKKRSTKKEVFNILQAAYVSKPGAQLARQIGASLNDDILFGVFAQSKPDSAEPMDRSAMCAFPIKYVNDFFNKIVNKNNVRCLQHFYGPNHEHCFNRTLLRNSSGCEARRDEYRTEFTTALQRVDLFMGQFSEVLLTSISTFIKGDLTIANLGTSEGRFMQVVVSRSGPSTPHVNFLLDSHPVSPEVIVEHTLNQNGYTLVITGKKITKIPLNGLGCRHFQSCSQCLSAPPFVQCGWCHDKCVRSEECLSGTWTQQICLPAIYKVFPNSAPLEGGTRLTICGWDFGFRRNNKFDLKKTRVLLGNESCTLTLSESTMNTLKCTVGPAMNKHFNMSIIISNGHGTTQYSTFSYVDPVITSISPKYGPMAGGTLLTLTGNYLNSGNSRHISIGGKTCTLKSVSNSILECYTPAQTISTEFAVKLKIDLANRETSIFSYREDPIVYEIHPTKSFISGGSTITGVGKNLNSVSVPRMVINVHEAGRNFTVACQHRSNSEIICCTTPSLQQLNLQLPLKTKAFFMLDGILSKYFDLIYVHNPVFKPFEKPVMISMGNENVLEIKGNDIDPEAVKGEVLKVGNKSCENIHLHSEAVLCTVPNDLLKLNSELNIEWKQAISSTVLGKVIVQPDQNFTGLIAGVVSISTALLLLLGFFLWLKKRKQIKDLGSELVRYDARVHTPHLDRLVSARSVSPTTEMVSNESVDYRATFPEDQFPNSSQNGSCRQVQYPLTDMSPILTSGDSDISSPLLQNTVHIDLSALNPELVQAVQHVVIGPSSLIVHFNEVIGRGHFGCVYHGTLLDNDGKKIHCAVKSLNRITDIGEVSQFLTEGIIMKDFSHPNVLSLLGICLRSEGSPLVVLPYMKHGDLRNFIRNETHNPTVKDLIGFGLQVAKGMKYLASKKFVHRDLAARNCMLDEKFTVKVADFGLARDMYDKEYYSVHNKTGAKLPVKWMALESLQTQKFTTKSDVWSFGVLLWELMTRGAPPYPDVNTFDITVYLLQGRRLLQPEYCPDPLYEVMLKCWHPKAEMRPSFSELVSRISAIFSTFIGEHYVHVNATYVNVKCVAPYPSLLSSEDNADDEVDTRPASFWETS
Experimental: as §2

3) AXL(h) = 3) AXL(h) (Homo sapiens, UniProt P30530); assay: biochemical; set-up: Radiometric kinase activity assay, percent inhibition, Eurofins Cerep; conditions: read-out: Kinase inhibition (%) ^a / 10 µM
Experimental: as §2

2) ALK(h) = 2) ALK(h) (Homo sapiens, UniProt Q9UM73); assay: biochemical; set-up: Radiometric kinase activity assay, percent inhibition, Eurofins Cerep; conditions: read-out: Kinase inhibition (%) ^a / 10 µM
Experimental: as §2

8) FLT3 (h) = 8) FLT3 (h) (Homo sapiens, UniProt P36888); assay: biochemical; set-up: Radiometric kinase activity assay, percent inhibition, Eurofins Cerep
8) FLT3 (h), sequence (P36888 whole entry): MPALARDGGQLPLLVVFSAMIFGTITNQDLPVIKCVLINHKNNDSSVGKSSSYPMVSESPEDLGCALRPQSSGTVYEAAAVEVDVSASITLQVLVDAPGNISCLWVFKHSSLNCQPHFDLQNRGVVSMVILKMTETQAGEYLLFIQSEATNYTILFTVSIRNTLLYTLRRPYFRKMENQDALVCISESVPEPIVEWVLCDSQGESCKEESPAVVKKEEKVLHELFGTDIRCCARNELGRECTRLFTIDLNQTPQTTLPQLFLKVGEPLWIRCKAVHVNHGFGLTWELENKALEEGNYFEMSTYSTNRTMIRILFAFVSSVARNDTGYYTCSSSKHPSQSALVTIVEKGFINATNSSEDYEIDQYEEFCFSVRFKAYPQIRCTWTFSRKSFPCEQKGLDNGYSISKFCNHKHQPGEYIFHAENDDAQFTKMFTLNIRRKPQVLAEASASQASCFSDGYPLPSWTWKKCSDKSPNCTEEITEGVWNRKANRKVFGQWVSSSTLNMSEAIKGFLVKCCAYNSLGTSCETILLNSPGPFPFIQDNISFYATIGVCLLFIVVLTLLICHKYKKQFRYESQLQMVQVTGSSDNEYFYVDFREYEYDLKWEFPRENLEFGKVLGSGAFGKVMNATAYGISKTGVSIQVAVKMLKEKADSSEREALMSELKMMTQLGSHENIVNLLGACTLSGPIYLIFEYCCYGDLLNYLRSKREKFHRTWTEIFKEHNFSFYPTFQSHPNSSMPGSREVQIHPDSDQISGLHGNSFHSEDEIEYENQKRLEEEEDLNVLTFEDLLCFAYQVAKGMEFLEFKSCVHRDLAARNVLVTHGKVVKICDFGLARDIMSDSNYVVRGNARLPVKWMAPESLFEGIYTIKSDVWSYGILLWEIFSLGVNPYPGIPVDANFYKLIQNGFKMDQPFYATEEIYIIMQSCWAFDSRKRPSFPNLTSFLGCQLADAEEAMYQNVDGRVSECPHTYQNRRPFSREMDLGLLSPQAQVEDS
Experimental: as §2

9) FLT4 (VEGFR3) = 9) FLT4 (VEGFR3) (Homo sapiens, UniProt P35916); assay: biochemical; set-up: Radiometric kinase activity assay, percent inhibition, Eurofins Cerep; conditions: read-out: Kinase inhibition (%) ^a / 10 µM
Experimental: as §2

15) PDGFRB (PDGFRβ) (h) = 15) PDGFRB (PDGFRβ) (h) (Homo sapiens, UniProt P09619); assay: biochemical; set-up: Radiometric kinase activity assay, percent inhibition, Eurofins Cerep
15) PDGFRB (PDGFRβ) (h), sequence (P09619 whole entry): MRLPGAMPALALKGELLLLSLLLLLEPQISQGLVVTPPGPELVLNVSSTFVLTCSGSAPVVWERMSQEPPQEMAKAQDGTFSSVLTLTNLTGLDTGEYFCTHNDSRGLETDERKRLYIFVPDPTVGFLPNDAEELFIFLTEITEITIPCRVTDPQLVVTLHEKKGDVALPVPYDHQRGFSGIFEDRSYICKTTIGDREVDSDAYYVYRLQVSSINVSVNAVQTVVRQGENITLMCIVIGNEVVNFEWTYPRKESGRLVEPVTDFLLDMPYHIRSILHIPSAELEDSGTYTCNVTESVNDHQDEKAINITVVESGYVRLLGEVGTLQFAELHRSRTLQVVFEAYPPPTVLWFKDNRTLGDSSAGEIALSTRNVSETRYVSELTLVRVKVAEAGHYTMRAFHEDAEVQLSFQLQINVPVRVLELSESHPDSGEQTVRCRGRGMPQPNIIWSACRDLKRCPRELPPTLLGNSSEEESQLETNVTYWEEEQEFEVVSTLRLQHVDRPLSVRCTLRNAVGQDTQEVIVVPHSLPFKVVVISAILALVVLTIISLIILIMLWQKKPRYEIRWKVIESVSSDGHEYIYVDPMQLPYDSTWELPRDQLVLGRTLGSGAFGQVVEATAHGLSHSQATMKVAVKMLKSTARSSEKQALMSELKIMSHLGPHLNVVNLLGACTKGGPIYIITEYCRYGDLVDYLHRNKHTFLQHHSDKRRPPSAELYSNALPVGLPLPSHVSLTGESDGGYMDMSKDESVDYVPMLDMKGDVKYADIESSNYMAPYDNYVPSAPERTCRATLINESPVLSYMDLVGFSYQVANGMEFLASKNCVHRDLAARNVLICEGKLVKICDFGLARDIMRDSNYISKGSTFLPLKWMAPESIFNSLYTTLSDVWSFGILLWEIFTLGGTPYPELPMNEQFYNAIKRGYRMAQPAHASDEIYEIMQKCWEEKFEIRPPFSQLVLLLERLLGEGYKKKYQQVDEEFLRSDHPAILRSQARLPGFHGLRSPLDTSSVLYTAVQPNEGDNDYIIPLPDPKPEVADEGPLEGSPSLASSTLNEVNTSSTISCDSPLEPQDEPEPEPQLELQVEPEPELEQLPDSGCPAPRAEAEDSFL
Experimental: as §2

1) ABL1(h) = 1) ABL1(h) (Homo sapiens, UniProt P00519); assay: biochemical; set-up: Radiometric kinase activity assay, percent inhibition, Eurofins Cerep; conditions: read-out: Kinase inhibition (%) ^a / 10 µM
Experimental: as §2

19) NTRK1 (TRKA) (h) = 19) NTRK1 (TRKA) (h) (Homo sapiens, UniProt P04629); assay: biochemical; set-up: Radiometric kinase activity assay, percent inhibition, Eurofins Cerep; conditions: read-out: Kinase inhibition (%) ^a / 10 µM / −4
Experimental: as §2

7) FLT1 (VEGFR1) (h) = 7) FLT1 (VEGFR1) (h) (Homo sapiens, UniProt P17948); assay: biochemical; set-up: Radiometric kinase activity assay, percent inhibition, Eurofins Cerep; conditions: read-out: Kinase inhibition (%) ^a / 10 µM
Experimental: as §2

17) MST1R (RON) (h) = 17) MST1R (RON) (h) (Homo sapiens, UniProt Q04912); assay: biochemical; set-up: Radiometric kinase activity assay, percent inhibition, Eurofins Cerep; conditions: read-out: Kinase inhibition (%) ^a / 10 µM / −4
Experimental: as §2

18) ROS1 = 18) ROS1 (Homo sapiens, UniProt P08922); assay: biochemical; set-up: Radiometric kinase activity assay, percent inhibition, Eurofins Cerep; conditions: read-out: Kinase inhibition (%) ^a / 10 µM / −4
Experimental: as §2

4) KIT (c-Kit) (h) = 4) KIT (c-Kit) (h) (Homo sapiens, UniProt P10721); assay: biochemical; set-up: Radiometric kinase activity assay, percent inhibition, Eurofins Cerep; conditions: read-out: Kinase inhibition (%) ^a / 10 µM
Experimental: as §2

6) FGFR1(h) = 6) FGFR1(h) (Homo sapiens, UniProt P11362); assay: biochemical; set-up: Radiometric kinase activity assay, percent inhibition, Eurofins Cerep; conditions: read-out: Kinase inhibition (%) ^a / 10 µM
Experimental: as §2

16) RET(h) = 16) RET(h) (Homo sapiens, UniProt P07949); assay: biochemical; set-up: Radiometric kinase activity assay, percent inhibition, Eurofins Cerep; conditions: read-out: Kinase inhibition (%) ^a / 10 µM / −4
16) RET(h), sequence (P07949 whole entry): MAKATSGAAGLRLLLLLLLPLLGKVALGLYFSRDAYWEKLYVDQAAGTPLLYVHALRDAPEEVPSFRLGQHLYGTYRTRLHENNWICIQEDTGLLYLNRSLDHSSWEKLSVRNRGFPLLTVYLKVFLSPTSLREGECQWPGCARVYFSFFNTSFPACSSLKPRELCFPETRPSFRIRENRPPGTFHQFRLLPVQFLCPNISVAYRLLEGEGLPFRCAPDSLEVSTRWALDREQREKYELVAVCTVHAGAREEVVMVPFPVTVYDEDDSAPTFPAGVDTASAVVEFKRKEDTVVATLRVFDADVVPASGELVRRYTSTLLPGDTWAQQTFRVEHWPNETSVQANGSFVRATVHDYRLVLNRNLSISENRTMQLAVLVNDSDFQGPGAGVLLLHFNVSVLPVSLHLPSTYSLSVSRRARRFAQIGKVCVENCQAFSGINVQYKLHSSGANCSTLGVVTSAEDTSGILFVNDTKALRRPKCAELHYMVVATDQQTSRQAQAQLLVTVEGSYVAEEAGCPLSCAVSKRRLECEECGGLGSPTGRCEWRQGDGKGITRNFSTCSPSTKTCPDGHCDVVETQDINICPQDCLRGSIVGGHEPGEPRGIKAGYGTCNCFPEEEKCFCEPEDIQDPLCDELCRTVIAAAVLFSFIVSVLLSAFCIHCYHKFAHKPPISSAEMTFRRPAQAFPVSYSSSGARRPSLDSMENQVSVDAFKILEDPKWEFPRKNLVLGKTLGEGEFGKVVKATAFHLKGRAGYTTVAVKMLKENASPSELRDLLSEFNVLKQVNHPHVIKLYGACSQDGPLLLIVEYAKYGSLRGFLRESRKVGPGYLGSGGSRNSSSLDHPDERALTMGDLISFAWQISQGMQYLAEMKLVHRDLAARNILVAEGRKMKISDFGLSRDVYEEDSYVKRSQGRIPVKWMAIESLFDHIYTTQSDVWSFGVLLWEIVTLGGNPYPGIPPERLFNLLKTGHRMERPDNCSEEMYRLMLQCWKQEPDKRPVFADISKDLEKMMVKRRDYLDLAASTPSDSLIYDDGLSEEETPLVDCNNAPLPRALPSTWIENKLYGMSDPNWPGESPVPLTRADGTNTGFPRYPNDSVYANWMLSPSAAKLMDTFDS
Experimental: as §2

10) KDR (VEGFR2) (h) = 10) KDR (VEGFR2) (h) (Homo sapiens, UniProt P35968); assay: biochemical; set-up: Radiometric kinase activity assay, percent inhibition, Eurofins Cerep; conditions: read-out: Kinase inhibition (%) ^a / 10 µM
Experimental: as §2

[1] = read-out: Kinase inhibition (%) ^a / 10 µM / −4
[2] = read-out: Kinase inhibition (%) ^a / 25 µM

Cn1c(N/N=C/c2ccc(OCc3cn(Cc4ccc([N+](=O)[O-])cc4)nn3)cc2)nc2ccccc2c1=O [CM1]
IC50 (EBC-1): > 100 µM | IC50 (HT-29): > 100 µM | IC50 (A549): > 100 µM | IC50 (U-87MG): > 100 µM

Cc1ccc(Cn2cc(COc3ccc(/C=N/Nc4nc5ccccc5c(=O)n4C)cc3)nn2)cc1 [CM2]
IC50 (EBC-1): > 100 µM | IC50 (HT-29): > 100 µM | IC50 (A549): > 100 µM | IC50 (U-87MG): > 100 µM

Cn1c(N/N=C/c2ccc(OCc3cn(Cc4ccc(C(C)(C)C)cc4)nn3)cc2)nc2ccccc2c1=O [CM3]
IC50 (EBC-1): > 100 µM | IC50 (HT-29): 56.4 ± 14.5 µM | IC50 (A549): > 100 µM | IC50 (U-87MG): > 100 µM

Cn1c(N/N=C/c2ccc(OCc3cn(Cc4ccc(F)cc4)nn3)cc2)nc2ccccc2c1=O [CM4]
IC50 (EBC-1): 36.2 ± 10.8 µM | IC50 (HT-29): 27.8 ± 5.1 µM | IC50 (A549): > 100 µM | IC50 (U-87MG): 67.1 ± 6.2 µM

Cn1c(N/N=C/c2ccc(OCc3cn(Cc4ccc(Cl)cc4)nn3)cc2)nc2ccccc2c1=O [CM5]
IC50 (EBC-1): > 100 µM | IC50 (HT-29): > 100 µM | IC50 (A549): > 100 µM | IC50 (U-87MG): > 100 µM

Cn1c(N/N=C/c2ccc(OCc3cn(Cc4ccccc4)nn3)cc2)nc2ccccc2c1=O [CM6]
IC50 (EBC-1): 32.5 ± 6.8 µM | IC50 (HT-29): > 100 µM | IC50 (A549): > 100 µM | IC50 (U-87MG): > 100 µM

Cn1c(N/N=C/c2ccc(OCc3cn(Cc4ccc(Cl)c(Cl)c4)nn3)cc2)nc2ccccc2c1=O [CM8]
IC50 (EBC-1): 22.4 ± 6 µM | IC50 (HT-29): 47.8 ± 6.7 µM | IC50 (A549): 34.5 ± 2.2 µM | IC50 (U-87MG): 51.1 ± 7.6 µM

Cn1c(N/N=C/c2ccc(OCc3cn(Cc4ccc(Br)cc4)nn3)cc2)nc2ccccc2c1=O [CM9, (E)-2-(2-(4-((1-(4-bromobenzyl)-1H-1,2,3-triazol-4-yl)methoxy)benzylidene)hydrazinyl)-3-methylquinazolin-4(3H)-one]
inhibition at 25 µM (FGFR1): 66% | IC50 (FLT4 (VEGFR3)): 5.01 µM | inhibition at 25 µM (FLT1 (VEGFR1)): 82% | inhibition at 25 µM (ALK): 51% | inhibition at 25 µM (AXL): 65% | IC50 (MET kinase): 22.8 ± 3.9 µM | inhibition at 10 µM (MAPK1(m) (ERK2)): 3% | inhibition at 10 µM (11) MAPK3 (ERK1) (h)): -4% | inhibition at 10 µM (14) PDGFRA (PDGFRα) (h)): 5% | inhibition at 10 µM (5) EGFR(h)): -2% | inhibition at 10 µM (13) MET(h); [1]): 27% | inhibition at 25 µM (13) MET(h); [2]): 58% | inhibition at 10 µM (3) AXL(h)): 28% | inhibition at 10 µM (2) ALK(h)): 25% | inhibition at 10 µM (8) FLT3 (h); read-out: Kinase inhibition (%) ^a / 10 µM): 24% | inhibition at 25 µM (8) FLT3 (h); [2]): 47% | inhibition at 10 µM (9) FLT4 (VEGFR3)): 86% | inhibition at 10 µM (15) PDGFRB (PDGFRβ) (h); [1]): 23% | inhibition at 25 µM (15) PDGFRB (PDGFRβ) (h); [2]): 10% | inhibition at 10 µM (1) ABL1(h)): 14% | inhibition at 10 µM (19) NTRK1 (TRKA) (h)): 4% | inhibition at 10 µM (7) FLT1 (VEGFR1) (h)): 22% | inhibition at 10 µM (17) MST1R (RON) (h)): 5% | inhibition at 10 µM (18) ROS1): -25% | inhibition at 10 µM (4) KIT (c-Kit) (h)): 0% | inhibition at 10 µM (6) FGFR1(h)): 39% | inhibition at 10 µM (16) RET(h)): -12% | inhibition at 10 µM (10) KDR (VEGFR2) (h)): 0% | IC50 (EBC-1): 8.6 ± 1.9 µM | IC50 (HT-29): 65.2 ± 15.4 µM | IC50 (A549): 64.9 ± 2.9 µM | IC50 (U-87MG): 24.6 ± 2.6 µM
